From publication PMC8457007 (RNA, 2021)

Target: CPSF73 (Homo sapiens, UniProt Q9UKF6)
Assay: gel-based end-point fluorescence nuclease assay with reconstituted U7 machinery
Type: biochemical

IC50: 850 nM
SMILES: O=C(O)CCc1cccc2c1B(O)OC2 [AN3661]
